For one data set, the system named is Heme Oxygenase 1 (HO1). The data set can be described thus: PD study, HMOX1 protein levels in mouse plasma and liver (ELISA). In kind it is in vivo. The settings on record: HMOX1 protein fold induction vs time-matched vehicle, 50 mpk oral; for Liver Protein (3 h) / Liver Protein (6 h): mouse liver; for Plasma Protein (3 h) / Plasma Protein (6 h): mouse plasma. The method, then:
9-10 week old male C57BL/6 mice were dosed orally with 50 mg/kg of vehicle or compound formulated in 5% w/v tween 80 and 0.5% methyl cellulose. At indicated time points (3 and 6 hours or or 4 and 8 hours post-dosing as shown in the results below), whole blood was collected, animal was sacrificed and liver was collected. Blood samples were transferred to vials containing 4 μL of 10% w/v EDTA, centrifuged at 6000 rpm for 8 in below 10° C. to obtain plasma. Samples were frozen and later processed for HMOX1 protein levels as indicated below:
HMOX 1 Protein Levels: Mouse Liver
Preparation of Homogenization/Lysis Buffer
The homogenization buffer was prepared according Table A.
Immediately prior to use, add DTT (ThermoScientific #R0861) to a final concentration of 5 mM and 100×Halt Protease & Phosphatase Inhibitor Cocktail (ThermoScientific #78440) to a final concentration of 1×.
Preparation of Mouse Liver Samples
Liver samples were crushed by mortar and pestle under freezing conditions. Pulverized tissue was transferred into pre-chilled bead ruptor OMNI tubes (OMNI International, Cat #19-628). 1 mL of homogenization buffer (+DTT and HALT) was added to pulverized tissue and tubes were placed on ice. Samples were loaded and run through bead ruptor at speed 5.64 m/s, for two 20 sec cycles with 10 sec dwell between cycles and samples were immediately returned to ice. All material was transferred to a new chilled 2 mL Eppendorf tube. Samples were centrifuged for 5 minutes at 2,000 rpm at 4° C. Supernatant was transferred to a fresh chilled 1.7 mL Eppendorf tube. Samples were centrifuged for 5 minutes at 2,000 rpm at 4° C. The supernatant, consisting of cytosol and microsomes, was transferred to a fresh chilled 1.7 mL Eppendorf tube. Samples were stored at −80° C. Microsome samples were quantitated using Pierce 660 Assay (ThermoFisher Cat #22660) with pre-diluted BSA standards (ThermoFisher Cat #23208) ranging from 125-2000 μg/mL. Each sample was diluted to 10ng/ul for an ELISA input of 0.5ug in 50ul.
Preparation of Assay Reagents
All assay reagents were provided in the Heme Oxygenase 1 (HO1) Mouse SimpleStep ELISA Kit (Abcam #ab204524). Prior to use, all reagents were equilibrated to room temperature. 1×Wash Buffer PT was prepared by diluting 10×Wash Buffer PT 1:10 with deionized water. Antibody cocktail was prepared by diluting the 10×Capture Antibody and 10×Detector Antibody to 1×in Antibody Diluent 5BI. Mouse heme oxygenase 1 protein standard was reconstituted using 500ul homogenization buffer (Table A), mixed and held at room temperature for 10 minutes prior to dilution. An eight point standard curve was generated by diluting the Stock Standard 1:2 for standard curve ranging from 10,000-156.3 pg/mL.
Heme Oxygenase 1 (HO1) Mouse SimpleStep ELISA
50ul of all samples and standards were added to appropriate wells in duplicate. 50ul of 1×Antibody Cocktail was added to each well. The plate was sealed with provided seal and incubated at room temperature on a plate shaker at 400 rpm. After one hour incubation, the Antibody Cocktail was aspirated and the wells were washed three times with 350ul 1×Wash Buffer PT, aspirating completely between each step. After the last wash was aspirated dry, 100ul TMB Substrate was added to each well and the plate was incubated in the dark at room temperature for 10 minutes on a plate shaker at 400 rpm. After the 10 minute incubation, 100ul of Stop Solution was added to each well. Plate was shaken at 400 rpm for 1 minute to mix. Softmax Pro 7.0.3 was used to read OD at 450 nm as well as for analysis.
Heme Oxygenase 1 Protein Levels in Mouse Plasma
All assay reagents were provided in the Heme Oxygenase 1 (HO1) Mouse SimpleStep ELISA Kit (Abcam #ab204524). 1×Wash Buffer PT was prepared by diluting 10×Wash Buffer PT 1:10 with deionized water. Antibody cocktail was prepared by diluting the 10×Capture Antibody and 10×Detector Antibody to 1×in Antibody Diluent 5BI. […]
(An ELISA detects its analyte on a solid surface through an enzyme-linked reagent.)

Another data set concerns FTH1. The data set is described as follows: FTH1 mRNA expression in HepG2 cells (Nanostring). The settings on record: 24 hours treatment. The data set is classed as cell-based, human. The method, then:
RNA Isolation and Quantification of Gene Expression
HepG2 cells were seeded at 250 k/well in 12-well tissue culture plates coated with collagen (collagen I, rat tail (thin plate coating); ENZO Life Sciences) for approximately 24 hours. The seeded cells were then treated with dose titration of the compound of Example 17 or dimethyl fumarate (DMF) (a Nrf2 activator; Fisher Scientific) via media change, with biological triplicates performed for each treatment. After approximately 24 hours of treatment, cells were visually inspected to confirm that no toxicity occurred with compound treatment. The treated cells were washed with PBS, aspirated, parafilmed and frozen at −80° C. prior to RNA isolation. RNA was isolated using Machery-Nagel isolation kit (NucleoSpin® RNA: catalog 740955.250) and then quantitated using ThermoFisher Nanodrop.
RNA was diluted for Nanostring gene expression analysis. The diluted RNA at an input of 200ng RNA was run on a Nanostring instrument, which was supported with nCounter® SPRINT Profiler System and nSolver4.0 Software, nCounter® SPRINT Cartridge, nCounter® SPRINT Reagent Pack, and nCounter© SPRINT Hybridization Buffer. Analysis was done manually using raw data obtained from nSolver4.0 Software. CLTC, POLR2A, RPL27 and TBP were used as reference genes for normalization. Data was graphed as fold change compared to DMSO treatment. […]

A short description of another data set: Kinetic solubility. The data set is classed as physicochemical. Particulars: Dulbecco's phosphate buffered saline (DPBS), aqueous buffer, kinetic from dmso stock, DPBS pH 7.4, 25° C., 200 μM test compound. The procedure:
10 μL of 10 mM DMSO stock solution were aliquotted to 490 μL of DMSO solution and separately 490 μL of Dulbecco's phosphate buffer saline, DPBS, pH 7.4 solution in 1.2 mL 96-well plates in duplicate. Final concentration was 200 μM of the test compound. Samples were incubated at 25° C. with shaking at 200 rpm for 16 h. Samples were centrifuged at 3500 rpm for 20 min at 25° C., and supernatant was submitted for HPLC analysis.
Kinetic solubility was measured using the following equation: […]

For data set [1], the system named is Human Heme Oxygenase-1 (HMOX-1). The data set can be described thus: ELISA assay to measure human heme oxygenase-1 (HMOX-1) in HepG2 lysate. The data set is classed as cell-based. Particulars: for Maximum Fold induction: fold change of human HMOX1 protein levels relative to DMSO control, HepG2; for EC50: human HMOX1 protein in HepG2 lysate, ELISA, * = average of 2 or more EC50 determinations, NA = Not Active. The procedure, abridged: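 HO-1 protein quantified by chemiluminescent sandwich ELISA against a 2-fold standard series starting at 20 ng/ml. Samples were 1:20-diluted HepG2 lysates made in Triton X-100/EDTA buffer with protease inhibitors. Capture antibody coated at 8 μg/ml, detection antibody used at 200 ng/ml, room-temperature (20 °C) steps.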

A word on the solubility: it is how much of the substance goes into solution per volume. Low values mean a poorly soluble substance, high ones a readily soluble substance. In general, EC50 refers to the concentration giving half of the maximal effect. Read a high EC50 as a less potent agent.

In brackets after ≈: the same amount, converted by molar mass. Counter-ions that a name gives are not always drawn.

Regarding `Cn1c(Nc2nc3ccc(OC(F)(F)F)cc3s2)nc2cc(C(=O)NCCOCCO)ccc21` [Comparator 1, 1-methyl-2-(6-trifluoromethoxy-benzothiazol-2-ylamino)-1H-benzoimidazole-5-carboxylic acid [2-(2-hydroxyethoxy)-ethyl]-amide, reference compound], in the data set on Heme Oxygenase 1 (HO1), the “Liver Protein (3 h)” value was 1.6x, the “Liver Protein (6 h)” value amounted to 3.2x, the “Plasma Protein (3 h)” value is listed as 1.1x and the “Plasma Protein (6 h)” value is 1.3x.

In the case of `COC(=O)/C=C/C(=O)OC` [DMF, dimethyl fumarate, reference compound], the “FTH1 expression fold increase” value in the data set on FTH1 is given as “comparable fold increases”.

`Cn1c(Nc2nc3c(s2)CC(C)(C)CC3)nc2cc(C(=O)NCCOCCO)ccc21` [Example 6, 2-((6,6-dimethyl-4,5,6,7-tetrahydrobenzo[d]thiazol-2-yl)amino)-N-(2-(2-hydroxyethoxy)ethyl)-1-methyl-1H-benzo[d]imidazole-5-carboxamide] came in with a solubility at 16 h in “Kinetic solubility” of 8.1 µM (≈ 3.59 µg/mL). Moreover, in data set [1], the “Maximum Fold induction” value came to 41 and the half-maximal effective concentration (EC50) was determined as 3 µM.

As to `CC1CCc2nc(Nc3nc4cc(C(=O)NCCOCCO)ccc4n3C)sc2C1` (stereo not drawn) [Example 7, N-(2-(2-hydroxyethoxy)ethyl)-1-methyl-2-((6-methyl-4,5,6,7-tetrahydrobenzo[d]thiazol-2-yl)amino)-1H-benzo[d]imidazole-5-carboxamide], in the data set “Kinetic solubility”, the solubility at 16 h is 7.2 µM (≈ 3.09 µg/mL). Further, in data set [1], the “Maximum Fold induction” value came out at 27 and the EC50 amounted to 2.7 µM.

In “Kinetic solubility”, `COCCNC(=O)c1ccc2c(c1)nc(Nc1nc3c(s1)CCC3)n2C` [Example 8, 2-((5,6-dihydro-4H-cyclopenta[d]thiazol-2-yl)amino)-N-(2-methoxyethyl)-1-methyl-1H-benzo[d]imidazole-5-carboxamide] showed a solubility at 16 h of 6.9 µM (≈ 2.56 µg/mL). Further, in data set [1], the “Maximum Fold induction” value is listed as 5-8 and the concentration giving a half-maximal response (EC50) turned out to be 2.5 µM.

`Cl.Cn1c(Nc2nc3c(s2)CNCC3)nc2cc(C(=O)NCCOCCO)ccc21` [Example 9, N-(2-(2-hydroxyethoxy)ethyl)-1-methyl-2-((4,5,6,7-tetrahydrothiazolo[5,4-c]pyridin-2-yl)amino)-1H-benzo[d]imidazole-5-carboxamide hydrochloride] displayed a solubility at 16 h in “Kinetic solubility” of 2.8 µM. Besides, in data set [1], the “Maximum Fold induction” value was 2.

Take `Cn1c(Nc2nc3cc(OC(F)(F)F)ccc3[nH]2)nc2cc(C(=O)O)ccc21` [Example 13, 1-methyl-2-((5-(trifluoromethoxy)-1H-benzo[d]imidazol-2-yl)amino)-1H-benzo[d]imidazole-5-carboxylic acid]: in the data set on Heme Oxygenase 1 (HO1), the “Liver Protein (3 h)” value amounted to 1.8x, the “Liver Protein (6 h)” value is recorded as 1.2x, the “Plasma Protein (3 h)” value came to 1.1x and the “Plasma Protein (6 h)” value was 0.8x. Moreover, the “Maximum Fold induction” value in data set [1] was 6-27.

In “Kinetic solubility”, `Cn1c(Nc2nc3ccccc3o2)nc2cc(C(=O)NCCNC3=NCCN3)ccc21` [Example 22, 2-(benzo[d]oxazol-2-ylamino)-N-(2-((4,5-dihydro-1H-imidazol-2-yl)amino)ethyl)-1-methyl-1H-benzo[d]imidazole-5-carboxamide] registered a solubility at 16 h of 3.5 µM (≈ 1.46 µg/mL). For the same molecule, the “Maximum Fold induction” value in data set [1] turned out to be 18.

On to `Cn1c(Nc2nc3ccc(N4CCOCC4)cc3o2)nc2cc(C(=O)NCCOCCO)ccc21` [Example 136, N-(2-(2-hydroxyethoxy)ethyl)-1-methyl-2-((6-morpholinobenzo[d]oxazol-2-yl)amino)-1H-benzo[d]imidazole-5-carboxamide], for which the “Maximum Fold induction” value in data set [1] was 36.

Consider `Cn1c(Nc2nc3ccc(N4CCCC4)cc3o2)nc2cc(C(=O)NCCOCCO)ccc21` [Example 137, N-(2-(2-hydroxyethoxy)ethyl)-1-methyl-2-((6-(pyrrolidin-1-yl)benzo[d]oxazol-2-yl)amino)-1H-benzo[d]imidazole-5-carboxamide], for which the “Maximum Fold induction” value in data set [1] is reported as 24-70.

In the case of `Cn1c(Nc2nc3ccc(OC4CCOCC4)cc3o2)nc2cc(C(=O)NCCOCCO)ccc21` [Example 138, N-(2-(2-hydroxyethoxy)ethyl)-1-methyl-2-((6-((tetrahydro-2H-pyran-4-yl)oxy)benzo[d]oxazol-2-yl)amino)-1H-benzo[d]imidazole-5-carboxamide], the “Maximum Fold induction” value in data set [1] is listed as 20.

For `Cn1c(Nc2nc3ccccc3o2)nc2cc(C(=O)C(F)(F)F)ccc21` [Example 139, 1-(2-(benzo[d]oxazol-2-ylamino)-1-methyl-1H-benzo[d]imidazol-5-yl)-2,2,2-trifluoroethan-1-one], the “Maximum Fold induction” value in data set [1] is listed as 21.

In the case of `Cn1c(Nc2nc3ccccc3o2)nc2cc(/C(=N/O)C(F)(F)F)ccc21` [Example 140, (Z)-1-(2-(benzo[d]oxazol-2-ylamino)-1-methyl-1H-benzo[d]imidazol-5-yl)-2,2,2-trifluoroethan-1-one oxime], in data set [1], the “Maximum Fold induction” value came out at 19.

As for `Cn1c(Nc2nc3ccccc3o2)nc2cc(C(N)C(F)(F)F)ccc21` (stereo not drawn) [Example 141, N-(5-(1-amino-2,2,2-trifluoroethyl)-1-methyl-1H-benzo[d]imidazol-2-yl)benzo[d]oxazol-2-amine], the “Maximum Fold induction” value in data set [1] is 22.

In the case of `Cn1c(Nc2nc3ccccc3o2)nc2cc(C(O)C(F)(F)F)ccc21` (stereo not drawn) [Example 142, 1-(2-(benzo[d]oxazol-2-ylamino)-1-methyl-1H-benzo[d]imidazol-5-yl)-2,2,2-trifluoroethan-1-ol], in data set [1], the “Maximum Fold induction” value came out at 27.

These data come from US20240051952A1, “HMOX1 INDUCERS” (Mitobridge Inc., priority 2019, published 2024).
